Read-outs that look alike come from different tables or passages of the source. Blank lines part the entries; values can stand above or below the compound they belong to.
Key:
(α1,2)fucosyltransferase = experiment: (α1,2)Fucosyltransferase assay, substrate and effector tests; type: biochemical
Procedure: (§1) Fucosyltransferase assays were performed by a modification of the procedure reported by Chester et al. (Chester et al, Eur. J. Biochem., 69: 583-593, 1976). The standard assay contained GDP-[^14]fucose (3 μM) phenyl-β-D-galactoside (25 mM), ATP (5 mm) and the enzyme solution (1-10 μl) in 20 μl of 25 mM sodium phosphate buffer, pH 6.1. Based upon preliminary assays, amounts of added enzyme activities were adjusted to ensure that reactions were linear throughout the period of incubation (4 h for fractionated serum, 2 h for each of the other enzyme preparations). Under these conditions, less than 15% of the substrate was consumed during the incubation period. […] The final pH value of each reaction was determined with a micro pH probe. […] The concentration of GDP-fucose in this stock solution was calculated from the UV absorbance at 254 nm of an aliquot diluted in water. […] The supernatant contained virtually 100% of the radiolabelled product; this was collected, and an aliquot was used for separation and quantitation of the fucosylated product using the hydrophobic interaction chromatography method described below. […] This background acceptor “activity” was always less than 3% of the radioactivity incorporated into the phenyl-β-D-galactoside acceptor. […] Intercepts were calculated by the least squares estimation method. […]

[1] = target: T1, recombinant human (α1,2)fucosyltransferase (Homo sapiens, UniProt P19526); experiment: Apparent Michaelis constants of recombinant (α1,2)fucosyltransferase expressed in COS-1 cells; type: biochemical
T1 construct: expressed in transfected cells; host or cells: COS-1 cells, transient DEAE-dextran transfection, cell extracts
T1 sequence (P19526 1-365): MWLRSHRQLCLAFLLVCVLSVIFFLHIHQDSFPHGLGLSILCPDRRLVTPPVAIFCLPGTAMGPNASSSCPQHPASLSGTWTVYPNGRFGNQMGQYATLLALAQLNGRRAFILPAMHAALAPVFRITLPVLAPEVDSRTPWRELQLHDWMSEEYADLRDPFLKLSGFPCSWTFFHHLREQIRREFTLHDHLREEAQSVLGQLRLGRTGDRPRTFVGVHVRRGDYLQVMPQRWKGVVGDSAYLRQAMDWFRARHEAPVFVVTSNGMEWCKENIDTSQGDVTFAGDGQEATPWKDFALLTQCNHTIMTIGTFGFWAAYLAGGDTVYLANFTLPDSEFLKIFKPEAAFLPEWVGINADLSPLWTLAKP
Procedure: as §1

[2] = tested on: monoclonal anti-H antibody; experiment: Hapten inhibition of anti-H antibody binding to mH1-12 cells (indirect immunofluorescence); parameters: species or system mouse; settings: antibody preincubated with hapten, 20 mM
Procedure: Immunofluoroscence was performed on cells plated on 8-well tissue culture chamber slides (Lab-Tek). Cells were plated at a density of 5×10^4/well 24 h prior to analysis. Anti-H and anti-A primary antibodies were diluted in PBS containing bovine serum albumin at 2 mg/ml, to a final concentration of 10 μg/ml. Cell-bound primary antibodies were detected with FITC-conjugated goat anti-mouse IgM, diluted to 40 μg/ml in PBS containing 2 mg/ml bovine serum albumin.
Hapten Inhibition—Plated cells were washed twice with PBS, and were incubated for 30 min at 4° C. with 100 μl of diluted anti-H antibody, or with 100 μl of diluted antibody containing different oligosaccharide haptens, each at a concentration of 20 mM. The chambers were then washed twice, and 100 μl of FITC-conjugated goat anti-mouse IgM was added. After 30 min at 4° C., the chambers were washed three times with PBS, and the cells were fixed at room temperature for 10 min in 3.7% formaldehyde in PBS. The cells were washed twice with PBS, the chambers were removed, and the slide was mounted in PBS containing 25% glycerol. Cells were examined by fluorescence microscopy using a Zeiss Axiophot photomicroscope equipped with fluorescence epiillumination.

α-fucosidase activity = experiment: α-Fucosidase activity in enzyme preparations; type: biochemical; settings: 10 mM; fractionated human serum and mouse intestinal mucosa extracts
Procedure: Each enzyme preparation was also tested for α-fucosidase activity that could hydrolyze the [^14C]fucosylphenyl-β-D-galactoside product and prevent accurate determination of (α1,2)fucosyltransferase activity. Enzyme preparations were incubated with purified [^14C]fucosylphenyl-β-D-galactoside (7000 cpm, 10 pmol) in fucosyltransferase assay buffer, but in the absence of added GDP-[^14C]fucose or phenyl-β-D-galactoside. These reactions were incubated at 37° C. for various times, and were then fractionated by the Sep-Pak method to determine the amount of remaining [^14C]fucosylphenyl-β-D-galactoside. Fractionated human serum and mouse intestinal mucosa extracts each contained significant α-fucosidase activity. […] Therefore 10 mM L-fucose was included when assaying these enzyme sources. Significant amounts of α-fucosidase activity were not detected in any of the other cell extracts; product hydrolysis never exceeded 1%/h under the standard assay conditions.

[3] = tested on: Griffonia simplicifolia isolectin I B4 (GS I-B4); experiment: Hapten inhibition of FITC-GS I-B4 staining of COS-1 cells transfected with pCDM7-αGT; type: binding; settings: 50 mM raffinose
Procedure: COS-1 cells transfected with plasmid DNAs were harvested 48-72-hr after transfection. These were stained with either fluorescein isothiocyanate-conjugated GS I-B4 at 10 μg per ml in staining media or with fluorescein isothiocyanate-conjugated GS I-B4 that had been previously incubated with 50 mM raffinose. Cells were then subjected to analysis by fluorescence-activated cell sorting as described above.

[4] = tested on: nucleotide pyrophosphatase activity; experiment: Nucleotide pyrophosphatase activity in mock fucosyltransferase assays; type: biochemical; settings: 5 mM in standard assay cocktail
Procedure: ATP (5 mM) was therefore included in all assays to inhibit nucleotide pyrophosphatase activity. […] Each enzyme source was incubated for 1 to 4 h at 37° C. in 20 μl of standard assay cocktail, but in the absence of phenyl-β-D-galactoside. After the reactions were terminated, an aliquot of each was spotted on Whatman No. 3MM, fractionated by descending paper chromatography for 20 h in solvent B, and radioactivity was determined as described above. Authentic GDP-[^14C]fucose, [^14C]fucose-1-phosphate, and L-[^14C]fucose standards were chromatographed in parallel. This system separates GDP-fucose, fucose-1-phosphate, and fucose. It therefore allows quantitation of the amount of GDP-[^14C]fucose remaining at the end of the incubation, and thus provides an estimate of pyrophosphatase activity. Under the standard assay conditions, more than 97% of the GDP-[^14C]fucose initially present in each mock reaction remained unhydrolyzed and available for transglycosylation.

F9 teratocarcinoma cells = experiment: (α1-3)GT specific activity in retinoic acid-differentiated F9 cells; type: cell-based, mouse
[5] = target: T2, blood group H (α1,2)fucosyltransferase (Homo sapiens, UniProt P19526); experiment: Apparent Km for the blood group H (α1,2)fucosyltransferase; type: biochemical; settings: determined by the inventor; read-out: apparent Km for phenyl-β-D-galactoside
T2 sequence (P19526 1-365): T1 sequence (P19526 1-365)
Procedure: Serum was prepared from freshly drawn blood obtained from a non-Secretor individual. The blood was clotted in a glass tube at 37° C. for 1 h and was immediately fractionated by ammonium sulfate precipitation exactly as described. The 20%-40% ammonium sulfate fraction was dialyzed against 2 changes of 4 liters of water (8 h each) at 4° C. Assay of (α1,2)fucosyltransferase was done immediately. Alternatively, the fractionated serum was aliquoted and stored at −20° C. until use.
Fucosyltransferase assays were performed by a modification of the procedure reported by Chester et al. (Chester et al, Eur. J. Biochem., 69: 583-593, 1976). […] The final pH value of each reaction was determined with a micro pH probe. […] The concentration of GDP-fucose in this stock solution was calculated from the UV absorbance at 254 nm of an aliquot diluted in water. […] The supernatant contained virtually 100% of the radiolabelled product; this was collected, and an aliquot was used for separation and quantitation of the fucosylated product using the hydrophobic interaction chromatography method described below. […] This background acceptor “activity” was always less than 3% of the radioactivity incorporated into the phenyl-β-D-galactoside acceptor. […] Intercepts were calculated by the least squares estimation method.

[6] = target: T3, (α1,2)fucosyltransferase found in human milk (Se locus) (Homo sapiens, UniProt Q10981); experiment: Apparent Km for the human milk (α1,2)fucosyltransferase; type: biochemical; settings: human milk enzyme; read-out: apparent Km for phenyl-β-D-galactoside
T3 sequence (Q10981 29-343 limits assumed): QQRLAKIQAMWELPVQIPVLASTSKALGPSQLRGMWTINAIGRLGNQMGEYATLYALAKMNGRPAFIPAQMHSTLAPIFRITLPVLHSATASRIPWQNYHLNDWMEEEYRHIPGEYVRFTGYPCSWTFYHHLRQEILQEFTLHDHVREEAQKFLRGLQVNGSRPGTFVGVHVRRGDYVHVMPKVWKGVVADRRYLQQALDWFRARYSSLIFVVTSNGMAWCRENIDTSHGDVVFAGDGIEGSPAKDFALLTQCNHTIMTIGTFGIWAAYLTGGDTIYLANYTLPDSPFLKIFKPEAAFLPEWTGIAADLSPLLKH
Procedure: (α1,2)Fucosyltransferase was isolated from human milk by published procedures. Briefly, 300 ml of milk from a Se-positive donor was defatted by centrifugation and was extensively dialyzed against 20 MM sodium cacodylate, pH 6.0. This was applied to a column (2.6×115 cm) of sulfopropyl-Sephadex equilibrated in 20 mM cacodylate, pH 6.0. The column was then washed with 1 liter of 20 mM cacodylate, pH 6.0, and was eluted with a linear gradient made from 1.5 liter each of 20 mM cacodylate, pH 6.0, and 500 mM NaCl in 20 mM cacodylate, pH 6.0. Fractions (13 ml) were collected and assayed for (α1,2)fucosyltransferase activity using phenyl-β-D-galactoside acceptor as described below. […]
Fucosyltransferase assays were performed by a modification of the procedure reported by Chester et al. (Chester et al, Eur. J. Biochem., 69: 583-593, 1976). […] The final pH value of each reaction was determined with a micro pH probe. […] The concentration of GDP-fucose in this stock solution was calculated from the UV absorbance at 254 nm of an aliquot diluted in water. […] The supernatant contained virtually 100% of the radiolabelled product; this was collected, and an aliquot was used for separation and quantitation of the fucosylated product using the hydrophobic interaction chromatography method described below. […] Intercepts were calculated by the least squares estimation method.

- activity as a substrate for (α1,2)fucosyltransferase ((α1,2)fucosyltransferase): inactive
Structure (SMILES): C[C@@H]1O[C@H](OP(=O)(O)OP(=O)(O)OC[C@H]2O[C@@H](n3cnc4c(=O)[nH]c(N)nc43)[C@H](O)[C@@H]2O)[C@@H](O)[C@H](O)[C@@H]1O [GDP-β-L-fucose]

- Km ([1]; COS-1 cells transfected with pH3.4, phenyl-β-D-galactoside 25 mM, read-out: apparent Km for GDP-fucose): 17.5 µM
Structure (SMILES): C[C@@H]1O[C@H](OP(=O)(O)OP(=O)(O)OC[C@H]2O[C@@H](n3cnc4c(=O)[nH]c(N)nc43)[C@H](O)[C@@H]2O)[C@@H](O)[C@H](O)[C@@H]1O [GDP-fucose]

- inhibition of α-fucosidase activity (α-fucosidase activity): effectively inhibited
- effect on (α1,2)fucosyltransferase activity ((α1,2)fucosyltransferase; 10 mM, reconstruction experiments with cell extracts): does not alter the activity
Structure (SMILES): C[C@H](O)[C@@H](O)[C@@H](O)[C@H](O)C=O [L-fucose]
- inhibition of anti-H antibody binding to mH1-12 cells by hapten [2]: does not inhibit

Structure (SMILES): OC[C@H]1O[C@H](OC[C@H]2O[C@H](O[C@]3(CO)O[C@H](CO)[C@@H](O)[C@@H]3O)[C@H](O)[C@@H](O)[C@@H]2O)[C@H](O)[C@@H](O)[C@H]1O [raffinose]
- inhibition of GS I-B4 staining by hapten [3]: inhibited

Structure (SMILES): Nc1ncnc2c1ncn2[C@@H]1O[C@H](COP(=O)(O)OP(=O)(O)OP(=O)(O)O)[C@@H](O)[C@H]1O [ATP]
- inhibition of nucleotide pyrophosphatase activity [4]: Effective inhibition

Structure (SMILES): CC1=C(/C=C/C(C)=C/C=C/C(C)=C/C(=O)O)C(C)(C)CCC1 [retinoic acid]
- specific activity of (α1-3)GT versus untreated F9 cells (F9 teratocarcinoma cells): approximately 4 fold

- Km ([1]; COS-1 cells transfected with pCDM7-α(1,2)FT, GDP-[14C]fucose 3 μM, read-out: apparent Km for phenyl-β-D-galactoside): 2400 µM
- Km [5]: 3100 µM
- Km [6]: 15100 µM
Structure (SMILES): OC[C@H]1O[C@@H](Oc2ccccc2)[C@H](O)[C@@H](O)[C@H]1O [phenyl-β-D-galactoside]

Source: patent US20020102688A1, “Methods and products for the synthesis of oligosaccharide structures on glycoproteins, glycolipids, or as free molecules, and for the isolation of cloned genetic sequences that determine these structures” (The Regents of the University of Michigan, priority 1990, published 2002)
